Data set [1] relates to rat/rat skin sandwich flap (enzyme in the skin, deaminase). The settings on record: stated as known; cited from earlier work.
The next data set deals with flap. The settings on record: rat, in vivo. From the text:
Following an intravenous injection of fluorescein, the amount of fluorescein that moves into tissue, and the rapidity with which it clears, depends upon the volume of blood to the area, the adequacy of venous drainage, and renal clearance. The influx and clearance of fluorescein, as measured with a surface hand-held dermofluorometer, has been evaluated as a function of time after occluding either the supplying artery or the draining vein.
Instrumentation used included: (1) Dermatome (Brown Electro-Dematome, Model 666, Zimmer Inc., Warsaw, IN) to generate the split-thickness skin grafts; (2) an operating microscope (Model OPMI 6-SD Carl Zeiss, West Germany) equipped with a fiberoptic illuminator (Model 310187, Dyonics, Andover, MA), to isolate the microvasculature supplying the skin flap; (3) Laser Doppler flow velocimeter (LD 5000, Med Pacific, Seattle, WA)--to noninvasively assess microcirculation of the skin; (4) electromagnetic blood flow transducer, C type 0.5 mm, 0.8 mm, and 1 mm in diameter (C&C INstruments, Culver City, CA)--to directly assess blood flow through the vessels supplying and draining the flap; and (5) a hand-held fiberoptic dermofluorometer (Fluoroscan-Santa Barbara Technology, Santa Barbara, CA), to assess blood flow by monitoring the appearance and clearance of fluorescein in the flap.

Data set [2] deals with skin flap (system described in Example 1). The experiment in a line: In vivo topical application of caffeine in the flap system of Example 1. As to the method: (§1) Compounds will frequently bind to the skin. Thus, after being absorbed through the outer protective layer, the stratum corneum, there is a possibility that the compound being tested will not be absorbed into the blood stream. It is anticipated that caffeine could be such a product. […] It is surprising to observe peak levels of caffeine within 30 minutes of topical application in the in vivo situation using the system described in Example 1. […] This confirmed the notion that there are binding sites of caffeine within the dermis.

Assay in data set [3]: as above
The following applies: rat, topical or ocular; in vivo, topical application; read-out: time of peak levels of caffeine. As to the method: as §1

A further data set deals with human skin. Briefly: In vitro topical application of caffeine to human skin. The data set is classed as in vitro ADME. As to the method:
as §1

In data set [4] the test system is host rat graft or human graft (rat skin vs. human skin). The following applies: in vivo.
Text: The objective of this experiment was to determine differences in absorption, rat skin vs. human skin, rat graft vs. rat host skin, with a second agent, caffeine.
The subject of another data set is rat/rat flap. Briefly: Role of blood flow on percutaneous absorption (iontophoresis of phenylephrine), rat/rat flap. The data set is classed as in vivo. The following applies: iontophoresis, circumscribed area. As for the experimental part:
(§2) In this example the experimental procedure described in Example 1 was followed and a rat/rat flap was prepared using an identical procedure. The purpose of this example is to illustrate the role of blood flow on percutaneous absorption processes. In this example, blood flow was locally altered by iontophoresis of phenylephrine. […] The experiment was repeated two weeks later in a nontreated mode, i.e., no alteration in the microcirculation. […] In the situtaton where there is no alteration in the mircocirculation, peak levels occur in approximately 10 minutes. There results reveal that in situations, where compounds are rapidly absorbed, microcirculation to the skin is of critical importance.

The subject of data set [5] is rat/human flap (host side). The experiment in a line: Transdermal flux of benzoic acid in the rat/human flap, host side. It is filed as in vivo. From the text: (§3) A skin flap was generated by incising the abdominal skin of the rat along three sides. The donor STSG was trimmed to approximate the size of the epigastric flap and was placed in the wound, with the epidermis facing the abdominal musculature of the host. The overlying epigastric host skin was returned to its normal anatomic position. The epigastric skin and the STSG were sutured in place, creating a sandwich having a vascular pedicle sandwiched between the skin layers. This surgical procedure produced a flap which received essentially all of its blood from the superficial epigastric vessels.
(§4) Two weeks later, the femoral vessels distal to the origin of the superficial epigastric vessels were surgically isolated and divided. This manipulation maximized the blood flow from the femoral artery to the sandwich flap. The flap was raised and isolated on its neurovascular pedicle (a single artery, vein, and nerve) using the operating microscope.
(§5) The donor site on the rat's abdomen was covered with a STSG from another syngeneic animal and sutured in place. The flap, on its isolated vascular pedicle, was moved through a subcutaneous tunnel to the rat's dorsum, where it was sutured in place.
Test compounds were applied to either the host or the graft side of the flap. […]
At the time of an experiment, with the animal under Ketamine anesthesia, the vessels supplying and draining the flap were exposed through an incision over the inguinal ligament. […] Concentration of radiolabeled compound, or its metabolities, in the blood were subsequently assessed by liquid scintillation counting and chromatographic techniques. Concentrations in the donor chamber were sampled periodically and quantitated in a similar manner. […]
In this experiment, 20 ug of ^14 C benzoic acid (4.5 uCi) in 95% ethanol was applied to the host side of the flap. […] Thereafter steady state was attained and flux was calculated to be 0.045 uCi/min/cm^2. […]

Data set [6] deals with rat/rat flap (host skin / grafted skin). Briefly: Absorption of benzoic acid across host vs. graft side of the rat/rat skin flap (flap blood sampling). It is filed as in vivo.
Text: Breeding pairs of nude rats were obtained from the Animal Production Facility of the National Cancer Institutes (Frederick, MD) and the colony was expanded by mating male rats homozygous for nude (athymic) with females heterozygous for nude.
as §3, §4, §5
(§6) In this example, the procedure followed in Example 1 was followed to produce a rat/rat skin flap with accessible vasculature.
Test compounds were applied to either the host or the graft side of the flap. Test compounds in their vehicles were placed in either a 1.5 cm diameter well, prepared from a HolliSeal® skin barrier (a sheet of silicone material with adhesive on both sides) (Hollister Incorporated, Libertyville, IL), or in a half-cell diffusion chamber. The HolliSeal well is generally covered with Parafilm to prevent evaporation. The half-cell diffusion chamber has a 2.7 ml volume, an impeller to avoid problems of unstirred solutions, a water jacket to maintain a constant temperature, and a sampling port (Dependable Scientific Glass, Salt Lake City, UT).
In an initial series of experiments ^14 C benzoic acid, specific activity 58.6 mCi/mM (New England Nuclear, Boston MA) in phosphate buffered saline, was used in various concentrations in the HolliSeal well and the half-cell diffusion chamber. These experiments were designed to compare the absorption of benzoic acid across the host and graft sides of the flap as a means of validating the system. In another series of experiments 3H-vidarabine, specific activity 38 mCi/mg (2.7 ml), was added to a half-cell diffusion chamber to validate the flap as a system to study the metabolism of a drug as it crosses the skin. 3H-vidarabine, specific activity 38 mCi/mg (2.7 ml), was added to a half-cell diffusion chamber attached to rat/rat skin sandwich flaps, which had previously been tape-stripped.
At the time of an experiment, with the animal under Ketamine anesthesia, the vessels supplying and draining the flap were exposed through an incision over the inguinal ligament. A venotomy was made in the femoral vein proximal to the juncture of the superficial epigastric vein to sample flap blood. A venotomy was also made in the contralateral femoral view to sample systemic blood. The blood samples (approximately 40 ul) were collected periodically in heparinized microhematocrit capillary tubes. Concentration of radiolabeled compound, or its metabolities, in the blood were subsequently assessed by liquid scintillation counting and chromatographic techniques. Concentrations in the donor chamber were sampled periodically and quantitated in a similar manner. […]

Data set [7] can be described thus: Role of blood flow on percutaneous absorption (iontophoresis of phenylephrine), rat/rat flap. It is filed as in vivo. The following applies: rat, in vivo, topical or ocular. As for the experimental part: as §2
Data set [8] concerns rat/rat skin sandwich flap (enzyme in the skin, deaminase). The experiment in a line: Metabolism of vidarabine in the rat/rat skin sandwich flap. It is filed as in vivo. The settings on record: radiolabeled vidarabine on rat/rat flap, half-cell diffusion chamber.
Text: as §6
Test compounds were applied to either the host or the graft side of the flap. Test compounds in their vehicles were placed in either a 1.5 cm diameter well, prepared from a HolliSeal® skin barrier (a sheet of silicone material with adhesive on both sides) (Hollister Incorporated, Libertyville, IL), or in a half-cell diffusion chamber. The HolliSeal well is generally covered with Parafilm to prevent evaporation. […]
At the time of an experiment, with the animal under Ketamine anesthesia, the vessels supplying and draining the flap were exposed through an incision over the inguinal ligament. […] Concentration of radiolabeled compound, or its metabolities, in the blood were subsequently assessed by liquid scintillation counting and chromatographic techniques. Concentrations in the donor chamber were sampled periodically and quantitated in a similar manner.
Additional experiments, using an antiviral substance, vidarabine, have been performed to assess the metabolic activity in the skin. […] Accordingly, radiolabeled vidarabine was placed on a rat/rat skin sandwich flap system, and the amount of vidarabine and its metabolite, ara-H, was measured in the blood draining the flap.

The mark [9] stands for this setting: grafted side, three weeks later.

Some results are limits rather than exact numbers.

Take `Nc1ncnc2c1ncn2[C@@H]1O[C@H](CO)[C@@H](O)[C@@H]1O` [vidarabine]: the “metabolism by an enzyme in the skin, deaminase” value in data set [1] was “metabolized by an enzyme in the skin, deaminase”.
Regarding `O=C1OC2(c3ccc(O)cc3Oc3cc(O)ccc32)c2ccccc21` [fluorescein], the “appearance of fluorescein in the flap” value in the data set on flap is “failure of the appearance of fluorescein in the flap”.
As to `Cn1c(=O)c2c(ncn2C)n(C)c1=O` [caffeine], the “effect of a second dose on absorption” value is on record as “greater than predicted absorption” in data set [2] (in vivo, two doses) and “did not alter absorption” with human skin (two doses). In addition, in data set [2] (lower layer of skin / dermis, in vitro vs. in vivo comparison), the “binding in the skin” value is “there are binding sites within the lower layer of skin which bind caffeine”. The Tmax in data set [3] is not above 30 min. Also, the “time until appearance in the donor chamber” value in the data set with human skin (topical, human skin) fell in the range of 6 to 12 h. In data set [4], the “increase in absorption, rat skin relative to human skin” value is listed as approximately 8 fold.
With `CNC[C@H](O)c1cccc(O)c1` [phenylephrine], the “effect on local microcirculation” value in the data set with rat/rat flap was “decreased microcirculation”.
`O=C(O)c1ccccc1` [benzoic acid] showed a steady state flux in [5] (20 ug (4.5 uCi) in 95% ethanol) of 0.045 uCi/min/cm^2. In addition, the “time of peak flux” value was “one” in [5] (20 ug (4.5 uCi) in 95% ethanol); not above 10 min in [5] (half-cell diffusion chamber, maximal hydration of the skin); 30 min in data set [6] (host skin, HolliSeal well, 0.52 uCi/ul in unbuffered water, 100 ul). Also, the “decrease in concentration in the donor well (time course)” value in [6] (donor well) was “linear with time”. Further, the “benzoic acid concentration in the donor well, start of decrease” value in data set [6] (donor well, decreasing from) was found to be 2.2 µg/mL. Besides, the “benzoic acid concentration in the donor well, end of decrease” value in data set [6] (donor well, decreasing to) was 0.75 µg/mL. The “course of flux after the peak” value in data set [6] (setting [9]) is “even more rapid decline”; in data set [6] (host skin) it was “decreased rapidly”. In addition, the “peak flux across the grafted side” value in data set [6] (setting [9]) was 2.2 uCi/min/cm^2. The “flux across host skin” value in [6] (host skin, assuming a blood flow of 1.5 ml/min) is 0.84 uCi/min/cm^2. For the same molecule, the total amount absorbed in data set [6] (same for host and grafted side) is 1.04 µg·min/µL. Moreover, the Tmax in data set [7] (decreased microcirculation (iontophoresis of phenylephrine), read-out: time of peak benzoic acid levels in flap blood (converted)) was approximately 140 min; in data set [7] (no alteration in the microcirculation, two weeks later, read-out: time of peak levels in flap blood (converted)) it was approximately 10 min.
As to `O=c1[nH]cnc2c1ncn2[C@@H]1O[C@H](CO)[C@@H](O)[C@@H]1O` [ara-H], in data set [8], the “back-diffusion through the skin into the donor chamber” value is “diffused back through the skin into the donor chamber”.

The values are drawn from patent publication US4677968A, “Methods of testing the reaction of various substances on living human skin” (priority 1986, dated 1987).
